Holding throughout (test): ≥ marks a high value that may be exact or a test limit, other limits are often not marked, values filed in µg/mL are converted to µM
The test system of assay [1] is Acinetobacter johnsonii NCDC 0072.
Assay [2] deals with Bacillus cereus NCDC 0240.
In assay [3] the test system is Escherichia coli MTCC 0723.
Assay [4] relates to Listeria monocytogenes ATCC 19111.
For assay [5], the system named is Pseudomonas aeruginosa ATCC 27853.
In assay [6] the test system is Pseudomonas aeruginosa NCDC 0105.
Assay [7] concerns Salmonella enterica subsp. enterica serovar Typhimurium ATCC 14028.
The test system of assay [8] is Staphylococcus aureus ATCC 29213.
Assay [9] has as its system Staphylococcus aureus NCDC 0111.
Assay [10] has as its system Candida tropicalis CCARM 14019.
For assay [11], the system named is Bacillus megaterium CIP 6620.
For assay [12], the system named is Corynebacterium stationis CIP 101282.
In assay [13] the test system is Escherichia coli SBS 363.
The test system of assay [14] is Microbacterium maritypicum CIP 105733T.
Assay [15] concerns Micrococcus luteus CIP 5345.
Assay [16] deals with Staphylococcus aureus CIP 103428.
The subject of assay [17] is Staphylococcus aureus SG511.
Assay [18] has as its system Staphylococcus haemolyticus.
Assay [19] deals with Vibrio nigripulchritudo CIP 103195.
Assay [20] relates to Vibrio splendidus CIP 107715.
In assay [21] the test system is Burkholderia cepacia.
Assay [22] has as its system Delftia acidovorans.
Assay [23] relates to Elizabethkingia meningoseptica.
In assay [24] the test system is Pseudomonas aeruginosa 6206.
Assay [25] has as its system Pseudomonas aeruginosa 6294.
Assay [26] deals with Pseudomonas aeruginosa ATCC 19660.
The subject of assay [27] is Pseudomonas aeruginosa PAER1.
Assay [28] deals with Staphylococcus aureus 31.
Assay [29] relates to Staphylococcus aureus 38.
In assay [30] the test system is Staphylococcus aureus ATCC 6538.
For assay [31], the system named is Stenotrophomonas maltophilia.
Assay [32] deals with Candida albicans ATCC 10231.
For assay [33], the system named is Cryptococcus neoformans ATCC 32264.
The subject of assay [34] is Escherichia coli ATCC 25922.
For assay [35], the system named is Escherichia coli.
Assay [36] relates to Salmonella enterica subsp. enterica serovar Enteritidis.
Assay [37] concerns Salmonella sp.
In assay [38] the test system is Staphylococcus aureus ATCC 33591.
The test system of assay [39] is Staphylococcus aureus ATCC 43300.
Assay [40] deals with Yersinia enterocolitica.
Assay [41] relates to Klebsiella pneumoniae DM4299.
The subject of assay [42] is Pseudomonas aeruginosa DM23155.

Molecules are shown by their SMILES. ≈ marks a conversion by molar mass, not a printed value. Where “and” joins values, the source holds several entries; their conditions need not be identical. Equal entries are not always repeated.

On to `CC[C@H](C)[C@H](NC(=O)[C@H](CO)NC(=O)[C@H](Cc1c[nH]c2ccccc12)NC(=O)[C@@H]1CCCN1C(=O)[C@@H](NC(=O)[C@H](C)N)[C@@H](C)CC)C(=O)N[C@@H](Cc1c[nH]c2ccccc12)C(=O)N[C@@H](Cc1c[nH]c2ccccc12)C(=O)N[C@@H](CCCN=C(N)N)C(=O)N[C@@H](CC(C)C)C(=O)N[C@@H](CC(C)C)C(=O)N[C@@H](Cc1ccccc1)C(=O)N[C@@H](CCCCN)C(=O)NCC(=O)O` [AIPWSIWWRLLFKG], for which the minimum inhibitory concentration (MIC) – broadly, the smallest concentration in the dilution series that meets the test's criterion for growth inhibition – in assay [1] is at least 200 µM; in assay [2], at least 100 µM; in assay [3], at least 200 µM; in assay [4], 3 µM (≈ 5.32 µg/mL); in assay [5] it was 100 µM (≈ 177 µg/mL); in assay [6], at least 50 µM. Further, the minimal inhibitory concentration (MIC) in assay [7] was 0.2 µM (≈ 0.355 µg/mL); in [8] it was 6 µM (≈ 10.6 µg/mL); in [9] it was 6 µM (≈ 10.6 µg/mL).
Regarding `CC(C)C[C@H](NC(=O)CNC(=O)[C@H](Cc1cnc[nH]1)NC(=O)[C@H](Cc1cnc[nH]1)NC(=O)[C@H](CCCN=C(N)N)NC(=O)[C@H](CCCCN)NC(=O)[C@H](C)N)C(=O)N[C@@H](CC(N)=O)C(=O)N[C@@H](CS)C(=O)N[C@@H](C)C(=O)N[C@@H](CCCCN)C(=O)N[C@@H](Cc1ccccc1)C(=O)N[C@@H](Cc1cnc[nH]1)C(N)=O` [AKRHHGLNCAKFH], the MIC in assay [10] was 0.466 µM and 0.931 µM.
For `CC[C@H](C)[C@H](NC(=O)[C@@H]1CCCN1C(=O)CN)C(=O)N[C@@H](CCCN=C(N)N)C(=O)N[C@@H](CCCN=C(N)N)C(=O)N1CCC[C@H]1C(=O)N[C@@H](CCC(=O)O)C(=O)N1CCC[C@H]1C(=O)N[C@@H](CCCN=C(N)N)C(=O)N1CCC[C@H]1C(=O)N[C@@H](CCCN=C(N)N)C(=O)N1CCC[C@H]1C(=O)N[C@@H](CCC(=O)O)C(=O)O` [GPIRRPEPRPRPE], the minimal inhibitory concentration (MIC) is 20 µM (≈ 31.1 µg/mL) in assay [11]; 20 µM (≈ 31.1 µg/mL) in [12]; at least 80 µM in assay [13]; 20 µM (≈ 31.1 µg/mL) in assay [14]; at least 80 µM in [15]; 20 µM (≈ 31.1 µg/mL) in [16]. The MIC in [17] is 20 µM (≈ 31.1 µg/mL); in assay [18], 20 µM (≈ 31.1 µg/mL); in assay [19] it was at least 40 µM; in assay [20] it was at least 40 µM.
Take `NCCCC[C@H](NC(=O)[C@H](CCCN=C(N)N)NC(=O)[C@H](CCCCN)NC(=O)[C@H](CC(N)=O)NC(=O)[C@@H](N)CCCCN)C(=O)N[C@@H](CCCN=C(N)N)C(=O)N[C@@H](CCCN=C(N)N)C(=O)N[C@@H](CCCN=C(N)N)C(=O)N[C@@H](CCCN=C(N)N)C(=O)N[C@@H](CCCN=C(N)N)C(=O)N[C@@H](CCCN=C(N)N)C(=O)NCC(=O)NCC(=O)N[C@@H](CCCN=C(N)N)C(=O)N[C@@H](CCCN=C(N)N)C(=O)N[C@@H](CCCN=C(N)N)C(=O)N[C@@H](CCCN=C(N)N)C(=O)O` [KNKRKRRRRRRGGRRRR]: the MIC in [21] is at least 426 µM; in [22] it was at least 426 µM; in assay [23], at least 213 µM; in assay [24], 26.6 µM (≈ 62.5 µg/mL); in assay [25], at least 106 µM; in assay [26], 26.6 µM (≈ 62.5 µg/mL). In addition, the MIC was at least 106 µM in [27]; at least 106 µM in assay [28]; at least 106 µM in assay [29]; 53.2 µM (≈ 125 µg/mL) in [30]; 13.3 µM (≈ 31.2 µg/mL) in assay [31].
Regarding `CC[C@H](C)[C@H](NC(=O)[C@H](CCCCN)NC(=O)[C@@H](NC(=O)[C@H](CCC(N)=O)NC(=O)[C@@H](N)CCCCN)[C@@H](C)CC)C(=O)N[C@@H](Cc1c[nH]c2ccccc12)C(=O)N[C@@H](Cc1ccccc1)C(=O)N[C@@H](CCC(N)=O)C(=O)N[C@@H](CC(N)=O)C(=O)N[C@@H](CCCCN)C(=O)N[C@@H](CCCCN)C(=O)N[C@@H](CCSC)C(=O)N[C@@H](CCCCN)C(=O)N[C@@H](Cc1c[nH]c2ccccc12)C(=O)N[C@@H](CCCCN)C(=O)N[C@@H](CCCCN)C(N)=O` [KQIKIWFQNKKMKWKK], the MIC in assay [32] is 50 µM (≈ 108 µg/mL); in assay [33], at least 50 µM; in assay [34], 64 µM and 50 µM; in [35], 17.7 µM (≈ 38.2 µg/mL); in assay [5] it was over 50 µM; in assay [36], 25 µM (≈ 54 µg/mL). The MIC was at least 50 µM in assay [37]; over 50 µM in [8]; at least 256 µM in assay [38]; over 50 µM in [39]; at least 50 µM in assay [40].
Turning to `CC(=O)N[C@@H](CCCN=C(N)N)C(=O)NCC(=O)N[C@@H](CCCN=C(N)N)C(=O)N[C@@H](CCCCN)C(=O)NCC(=O)NCC(=O)N[C@@H](CCCN=C(N)N)C(=O)N[C@@H](CCCN=C(N)N)C(=O)N[C@@H](CCCCN)C(=O)N[C@@H](CCCCN)C(=O)O` [RGRKGGRRKK], the MIC in assay [34] was 1.5 µM (≈ 1.86 µg/mL); in assay [41] it was 3 µM (≈ 3.72 µg/mL); in [42], 6 µM (≈ 7.44 µg/mL).
